DC50 data for 39 molecules are collected here from patent US8003649B2 (AstraZeneca AB, priority 2007, dated 2011).

Some results are limits rather than exact numbers.

The experiment addresses T1, Androgen Receptor (AR) (Homo sapiens, UniProt P10275, T878A).
T1 construct: cell based immuno-fluorescence assay using the LNCaP prostate epithelial cell line; endogenous in cells; host or cells: LNCaP clone FGC (ATCC CRL-1740)
T1 sequence (P10275 1-920 T878A): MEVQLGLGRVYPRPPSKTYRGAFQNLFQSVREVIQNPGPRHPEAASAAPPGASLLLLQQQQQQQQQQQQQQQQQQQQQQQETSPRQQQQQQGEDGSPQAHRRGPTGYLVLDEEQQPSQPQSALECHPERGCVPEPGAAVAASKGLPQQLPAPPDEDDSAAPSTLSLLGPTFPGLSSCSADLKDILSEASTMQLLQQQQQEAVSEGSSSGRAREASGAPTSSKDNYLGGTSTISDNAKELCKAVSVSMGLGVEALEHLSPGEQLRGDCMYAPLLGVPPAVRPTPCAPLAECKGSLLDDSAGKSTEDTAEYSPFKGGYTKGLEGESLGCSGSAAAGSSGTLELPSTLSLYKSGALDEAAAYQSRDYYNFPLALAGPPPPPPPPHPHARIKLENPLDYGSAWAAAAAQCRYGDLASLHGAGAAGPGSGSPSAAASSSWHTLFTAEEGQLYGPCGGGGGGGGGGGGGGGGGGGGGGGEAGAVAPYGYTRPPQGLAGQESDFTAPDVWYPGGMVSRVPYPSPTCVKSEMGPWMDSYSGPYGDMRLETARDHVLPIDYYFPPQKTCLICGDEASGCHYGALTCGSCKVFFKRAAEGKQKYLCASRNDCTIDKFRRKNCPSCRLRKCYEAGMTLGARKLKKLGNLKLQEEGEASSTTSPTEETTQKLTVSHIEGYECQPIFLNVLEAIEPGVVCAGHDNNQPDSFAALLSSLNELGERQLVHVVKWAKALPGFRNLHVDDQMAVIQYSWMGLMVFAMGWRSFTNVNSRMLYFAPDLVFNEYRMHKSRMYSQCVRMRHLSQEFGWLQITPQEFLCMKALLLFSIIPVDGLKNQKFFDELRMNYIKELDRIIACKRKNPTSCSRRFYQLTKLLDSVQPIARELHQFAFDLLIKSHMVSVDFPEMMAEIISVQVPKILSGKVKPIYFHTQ
Nature of the experiment: LNCaP Androgen Receptor Down-regulation Cell Assay (immunofluorescence end point). The following applies: LNCaP prostate carcinoma cells, compound incubation 20-22 hours, 50% reduction of the AR signal; read-out: Androgen Receptor Down-regulation Assay (a) IC50/μM. Format: cell-based. A digest of the protocol: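 AR loss reported as IC50 from curve fits of fluorescence dose-response data, with AR immunostained and read by laser-scanning cytometry. Compound exposure was 20-22 h at 37° C in LNCaP cells grown in 5% charcoal-stripped FBS and plated overnight beforehand.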
As to `FC(F)(F)c1nnc2ccc(N3CCN(Cc4ccc5c(c4)OCCO5)CC3)nn12` [Example 88, 6-[4-(2,3-dihydro-1,4-benzodioxin-6-ylmethyl)piperazin-1-yl]-3-(trifluoromethyl)-[1,2,4]triazolo[4,3-b]pyridazine], the DC50 was 1.5 µM.

For the molecule `FC(F)(F)c1nnc2ccc(N3C[C@H]4CC[C@@H](C3)N4Cc3cccnc3)nn12` [Example 553, 6-[(1R,5S)-8-(pyridin-3-ylmethyl)-3,8-diazabicyclo[3.2.1]oct-3-yl]-3-(trifluoromethyl)[1,2,4]triazolo[4,3-b]pyridazine], the DC50 was 2.6 µM.

`FC(F)(F)c1nnc2ccc(N3CCN(c4ccc(OCc5ccon5)cc4)CC3)nn12` [Example 757]: the DC50 is more than 12 µM.

For the molecule `Cn1nccc1CCOc1ccc(OC2CCN(c3ccc4nnc(C(F)(F)F)n4n3)CC2)cc1` [Example 441], the DC50 is 0.22 µM.

`CS(=O)(=O)Nc1cccc(CN2CCN(c3ccc4nnc(C(F)(F)F)n4n3)CC2)c1` [Example 150, N-[3-[[4-[3-(trifluoromethyl)-[1,2,4]triazolo[4,3-b]pyridazin-6-yl]piperazin-1-yl]methyl]phenyl]methanesulfonamide]: the DC50 came to 7.6 µM.

For `COc1ccc(CN2CCN(c3ccc4nnc(C(F)(F)F)n4n3)CC2)cc1F` [Example 388], the DC50 turned out to be 1.6 µM.

With `FC(F)(F)c1cccc(CN2CCN(c3ccc4nnc(C(F)(F)Cl)n4n3)CC2)c1` [Example 346], the DC50 was determined as 8.5 µM.

On to `COc1cccc(CN2CC3CN(c4ccc5nnc(C(F)(F)F)n5n4)CC3C2)c1` (stereo not drawn) [Example 194, 6-[2-[(3-methoxyphenyl)methyl]-1,3,3a,4,6,6a-hexahydropyrrolo[3,4-c]pyrrol-5-yl]-3-(trifluoromethyl)-[1,2,4]triazolo[4,3-b]pyridazine], for which the DC50 turned out to be 2.4 µM.

Turning to `COCCN(C)C(=O)COc1ccc(C2CCN(c3ccc4nnc(C(F)(F)F)n4n3)CC2)cc1` [Example 851, N-(2-methoxyethyl)-N-methyl-2-[4-[1-[3-(trifluoromethyl)[1,2,4]triazolo[4,3-b]pyridazin-6-yl]piperidin-4-yl]phenoxy]acetamide], the DC50 stood at 0.92 µM.

In the case of `Cc1cc(N2CCN(Cc3ccc(C#N)cc3)CC2)nn2c(C(F)(F)F)nnc12` [Example 12, 4-((4-(8-Methyl-3-(trifluoromethyl)-[1,2,4]triazolo[4,3-b]pyridazin-6-yl)piperazin-1-yl)methyl)benzonitrile], the DC50 turned out to be 4.3 µM.

Regarding `C[C@H]1CN(Cc2ccc(F)c(F)c2)CCN1c1ccc2nnc(C(F)(F)F)n2n1` [Example 595], the DC50 stood at 6.8 µM.

For the molecule `FC(F)(F)c1nnc2ccc(N3CCC(c4cn(CCN5CCCC5)c5ccccc45)CC3)nn12` [Example 508, 6-[4-[1-(2-pyrrolidin-1-ylethyl)-1H-indol-3-yl]piperidin-1-yl]-3-(trifluoromethyl)[1,2,4]triazolo[4,3-b]pyridazine], the DC50 was 2.2 µM.

On to `CC(F)(F)c1nnc2ccc(N3CCN(Cc4cccc(C#N)c4)CC3)nn12` [Example 242], for which the DC50 was 7.4 µM.

On to `FC1(F)Oc2ccc(CN3CCN(c4ccc5nnc(C(F)(F)F)n5n4)CC3)cc2O1` [Example 100, 6-[4-[(2,2-difluoro-1,3-benzodioxol-5-yl)methyl]piperazin-1-yl]-3-(trifluoromethyl)-[1,2,4]triazolo[4,3-b]pyridazine], for which the DC50 is 1.8 µM.

For `FC(F)(F)c1ccc(C(c2ccccc2)N2CCN(c3ccc4nnc(C(F)(F)F)n4n3)CC2)cc1` (stereo not drawn) [Example 26, 6-[4-[phenyl-[4-(trifluoromethyl)phenyl]methyl]piperazin-1-yl]-3-(trifluoromethyl)-[1,2,4]triazolo[4,3-b]pyridazine], the DC50 was determined as 1 µM.

For the molecule `O=C(c1ccc(OC2CCN(c3ccc4nnc(C(F)(F)F)n4n3)CC2)cc1)N1CC[C@@H](O)C1` [Example 418], the DC50 is more than 14 µM.

As to `C[C@@H]1CN(Cc2ccc(C#N)cc2)CCN1c1ccc2nnc(C(F)(F)F)n2n1` [Example 600], the DC50 stood at 0.85 µM.

For the molecule `Cc1ccc(CN2CCN(c3ccc4nnc(C(F)(F)F)n4n3)CC2)cn1` [Example 776], the DC50 is 6.9 µM.

As to `CN1CCN(CCCC(=O)Nc2cccc(C3CCN(c4ccc5nnc(C(F)(F)F)n5n4)CC3)c2)CC1` [Example 659, 4-(4-methylpiperazin-1-yl)-N-[3-[1-[3-(trifluoromethyl)-[1,2,4]triazolo[4,3-b]pyridazin-6-yl]piperidin-4-yl]phenyl]butanamide], the DC50 was 1 µM.

Take `Fc1cccc(CCN2CCN(c3ccc4nnc(C(F)(F)F)n4n3)CC2)c1` [Example 234]: the DC50 was determined as 2 µM.

As to `CS(=O)(=O)N1CCN(CCCOc2ccc(C3CCN(c4ccc5nnc(C(F)(F)F)n5n4)CC3)cc2)CC1` [Example 855, 6-[4-[4-[3-[4-(methylsulfonyl)piperazin-1-yl]propoxy]phenyl]piperidin-1-yl]-3-(trifluoromethyl)[1,2,4]triazolo[4,3-b]pyridazine], the DC50 was 0.44 µM.

For the molecule `FC(F)(F)c1nnc2ccc(N3CCC(COc4cccnc4)CC3)nn12` [Example 560], the DC50 was found to be 8.8 µM.

For the molecule `FC(F)(F)c1nnc2ccc(N3CCC(c4cccc(OCc5cnco5)c4)CC3)nn12` [Example 680], the DC50 amounted to 0.6 µM.

As to `FC(F)(F)c1nnc2ccc(N3CCN(c4ccc(OCCn5ccnc5)cc4)CC3)nn12` [Example 845, 6-[4-[4-[2-(1H-imidazol-1-yl)ethoxy]phenyl]piperazin-1-yl]-3-(trifluoromethyl)[1,2,4]triazolo[4,3-b]pyridazine], the DC50 came out at 0.9 µM.

On to `Fc1cccc(OC2CCN(c3ccc4nnc(C(F)F)n4n3)CC2)c1` [Example 268], for which the DC50 was 0.91 µM.

For the molecule `COc1cccc(OC2CCN(c3ccc4nnc(C(F)(F)F)n4n3)CC2)c1` [Example 527], the DC50 was found to be 0.67 µM.

For the molecule `FC(F)(F)c1nnc2ccc(N3CCN(Cc4c[nH]c5ccncc45)CC3)nn12` [Example 480], the DC50 is 9.6 µM.

`FC(F)(F)c1nnc2ccc(N3CCCN(Cc4ccccc4Cl)CC3)nn12` [Example 33, 6-[4-[(2-chlorophenyl)methyl]-1,4-diazepan-1-yl]-3-(trifluoromethyl)-[1,2,4]triazolo[4,3-b]pyridazine]: the DC50 was determined as 0.68 µM.

For `Cn1cccc1CN1CCN(c2ccc3nnc(C(F)(F)F)n3n2)CC1` [Example 87, 6-[4-[(1-methylpyrrol-2-yl)methyl]piperazin-1-yl]-3-(trifluoromethyl)-[1,2,4]triazolo[4,3-b]pyridazine], the DC50 was found to be 5.2 µM.

As to `Cn1nccc1COc1ccc(OC2CCN(c3ccc4nnc(C(F)(F)F)n4n3)CC2)cc1` [Example 442], the DC50 is 0.44 µM.

Regarding `Cc1cc2nnc(C(F)(F)F)n2nc1N1CCN(Cc2ccc(C#N)cc2)CC1` [Example 13, 4-((4-(7-Methyl-3-(trifluoromethyl)-[1,2,4]triazolo[4,3-b]pyridazin-6-yl)piperazin-1-yl)methyl)benzonitrile], the DC50 stood at 8.4 µM.

As for `CCCCOc1cccc(CN2CCN(c3ccc4nnc(C(F)(F)F)n4n3)CC2)c1` [Example 157, 6-[4-[(3-butoxyphenyl)methyl]piperazin-1-yl]-3-(trifluoromethyl)-[1,2,4]triazolo[4,3-b]pyridazine], the DC50 was 2.4 µM.

Consider `FC(F)(F)c1nnc2ccc(N3CCN(Cc4ccc5[nH]ccc5c4)CC3)nn12` [Example 77, 6-[4-(1H-indol-5-ylmethyl)piperazin-1-yl]-3-(trifluoromethyl)-[1,2,4]triazolo[4,3-b]pyridazine], for which the DC50 was 1.4 µM.

`O=C(c1ccc2[nH]cc(C3CCN(c4ccc5nnc(C(F)(F)F)n5n4)CC3)c2c1)N1CC[C@@H](O)C1` [Example 500]: the DC50 is more than 18 µM.

With `COc1cccc(OC2CCN(c3ccc4nnc(C(F)F)n4n3)CC2)c1` [Example 267], the DC50 was determined as 0.85 µM.

Take `FC(F)(F)c1nnc2ccc(N3CCN(Cc4ccc(Br)nc4)CC3)nn12` [Example 374, 6-[4-[(6-bromopyridin-3-yl)methyl]piperazin-1-yl]-3-(trifluoromethyl)[1,2,4]triazolo[4,3-b]pyridazine]: the DC50 is 0.93 µM.

Turning to `COCCNC(=O)c1ccc(N2CCN(c3ccc4nnc(C(F)(F)F)n4n3)CC2)cc1` [Example 745], the DC50 was determined as 3.4 µM.

Regarding `N#Cc1cccc(CN2[C@@H]3CC[C@H]2CN(c2ccc4nnc(C(F)(F)F)n4n2)C3)c1` [Example 840], the DC50 was 2.6 µM.

In the case of `O=C(c1ccccc1)C1CCN(c2ccc3nnc(C(F)(F)F)n3n2)CC1` [Example 533], the DC50 was 2.3 µM.
